The values that follow are results of earlier work, collected in patent US20200188266A1, “Oral Care Compositions and Methods of Use” (priority 2017, published 2020).

For this data set the following is noted: DI water at about 35° C.

Consider `CC(=O)c1c(O)c(C)c(O)c2c1OC1=CC(=O)C(C(C)=O)C(=O)C12C` (stereo not shown) [usnic acid], for which the solubility entry was “about 6.3 ppm”.
